Data reported in PubChem BioAssay (NCI).
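Interpolation was linear, between the two tested concentrations surrounding the appropriate level; five concentrations were tested over 48 hours in 96-well plates. GI50 = concentration required for 50% inhibition of growth. Definition used: TGI = concentration required for complete inhibition of growth.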

Key:
Test in all cases: DTP human tumour cell line panel, 48 h
[1] = system: BT-549 breast
[2] = system: NCI-H23 lung
[3] = system: NCI-H522 lung
[4] = system: RPMI-8226 leukemia
[5] = system: HCT-116 colon
[6] = system: 786-0 renal
[7] = system: HT29 colon
[8] = system: MOLT-4 leukemia
[9] = system: OVCAR-5 ovarian
[10] = system: SR leukemia
[11] = system: OVCAR-3 ovarian
[12] = system: KM12 colon
[13] = system: T-47D breast
[14] = system: SK-MEL-5 melanoma
[15] = system: DU-145 prostate
[16] = system: HCT-15 colon
[17] = system: UO-31 renal
[18] = system: ACHN renal
[19] = system: SK-MEL-28 melanoma
[20] = system: A549 NSCLC
[21] = system: SNB-19 CNS
[22] = system: HS 578T breast
[23] = system: U251 CNS
[24] = system: MCF7 breast
[25] = system: A498 renal
[26] = system: M14 melanoma
[27] = system: UACC-62 melanoma
[28] = system: K-562 leukemia
[29] = system: SW-620 colon
[30] = system: SN12C renal
[31] = system: CCRF-CEM leukemia
[32] = system: PC-3 prostate
[33] = system: NCI/ADR-RES ovarian
[34] = system: NCI-H460 lung
[35] = system: CAKI-1 renal
[36] = system: SK-OV-3 ovarian
[37] = system: HOP-62 NSCLC
[38] = system: TK-10 renal
[39] = system: COLO 205 colon
[40] = system: LOX IMVI melanoma
[41] = system: OVCAR-4 ovarian
[42] = system: IGROV1 ovarian
[43] = system: SF-268 CNS
[44] = system: MALME-3M melanoma
[45] = system: SK-MEL-2 melanoma
[46] = system: MDA-MB-231 breast
[47] = system: SF-539 CNS
[48] = system: OVCAR-8 ovarian
[49] = system: RXF 393 renal
[50] = system: HOP-92 NSCLC
[51] = system: MDA-MB-435
[52] = system: HCC-2998 colon
[53] = system: NCI-H226 lung
[54] = system: SF-295 CNS
[55] = system: HL-60(TB) leukemia
[56] = system: EKVX NSCLC
[57] = system: UACC-257 melanoma
[58] = system: SNB-75 CNS

## COc1ccc(C(O)c2cc3c(N)c(C(=O)Nc4cccc(Br)c4C)sc3nc2C)cc1 (stereo not given)
[1]
  GI50: 479 nM
  TGI: 15.4 µM
[2]
  GI50: 276 nM
  TGI: > 33.3 µM
[3]
  GI50: 157 nM
[4]
  GI50: 167 nM
  TGI: > 33.3 µM
[5]
  GI50: 141 nM
  TGI: 7.46 µM
[6]
  GI50: 254 nM
  TGI: > 33.3 µM
[7]
  GI50: 120 nM
  TGI: 5.77 µM
[8]
  GI50: 177 nM
  TGI: > 33.3 µM
[9]
  GI50: 666 nM
  TGI: > 25.6 µM
[10]
  GI50: 125 nM
  TGI: > 33.3 µM
[11]
  GI50: 103 nM
  TGI: 1080 nM
[12]
  GI50: 152 nM
  TGI: 11.7 µM
[13]
  GI50: 346 nM
  TGI: > 33.3 µM
[14]
  GI50: 143 nM
  TGI: 922 nM
[15]
  GI50: 135 nM
  TGI: 4.54 µM
[16]
  GI50: 138 nM
  TGI: > 14.4 µM
[17]
  GI50: 261 nM
  TGI: > 33.3 µM
[18]
  GI50: 216 nM
  TGI: > 26.4 µM
[19]
  GI50: 5.2 µM
  TGI: > 33.3 µM
[20]
  GI50: 221 nM
  TGI: > 16.8 µM
[21]
  GI50: 211 nM
  TGI: > 33.3 µM
[22]
  GI50: 106 nM
  TGI: 3.75 µM
[23]
  GI50: 164 nM
  TGI: 8.61 µM
[24]
  GI50: 116 nM
  TGI: > 33.3 µM
[25]
  GI50: 82 nM
  TGI: 1280 nM
[26]
  GI50: 109 nM
  TGI: > 24 µM
[27]
  GI50: 141 nM
  TGI: > 31 µM
[28]
  GI50: 140 nM
  TGI: > 33.3 µM
[29]
  GI50: 124 nM
  TGI: > 33.3 µM
[30]
  GI50: 246 nM
  TGI: > 33.3 µM
[31]
  GI50: 139 nM
  TGI: > 33.3 µM
[32]
  GI50: 618 nM
  TGI: 18.4 µM
[33]
  GI50: 179 nM
  TGI: 2990 nM
[34]
  GI50: 121 nM
  TGI: 1650 nM
[35]
  GI50: 151 nM
  TGI: 18.1 µM
[36]
  GI50: 251 nM
  TGI: > 33.3 µM
[37]
  GI50: 287 nM
  TGI: > 30.2 µM
[38]
  GI50: 4.21 µM
  TGI: > 24.4 µM
[39]
  GI50: 1040 nM
  TGI: > 11 µM
[40]
  GI50: 187 nM
  TGI: 12.4 µM
[41]
  GI50: 2810 nM
  TGI: > 33.3 µM
[42]
  GI50: 375 nM
  TGI: 18.8 µM
[43]
  GI50: 405 nM
  TGI: > 27.8 µM
[44]
  GI50: 199 nM
  TGI: > 33.3 µM
[45]
  GI50: 1170 nM
  TGI: > 33.3 µM
[46]
  GI50: 462 nM
  TGI: 8.96 µM
[47]
  GI50: 131 nM
  TGI: 2880 nM
[48]
  GI50: 225 nM
  TGI: > 23 µM
[49]
  GI50: 94.4 nM
  TGI: 2220 nM
[50]
  GI50: 261 nM
  TGI: 18 µM
[51]
  GI50: 66.5 nM
  TGI: 149 nM
[52]
  GI50: 426 nM
  TGI: 2840 nM
[53]
  GI50: 989 nM
  TGI: 17.9 µM
[54]
  GI50: 133 nM
  TGI: 6.14 µM
[55]
  GI50: 104 nM
  TGI: 2340 nM
[56]
  GI50: 259 nM
  TGI: > 33.3 µM
[57]
  GI50: 307 nM
  TGI: > 33.3 µM
[58]
  GI50: 81.6 nM
  TGI: 11.2 µM
